Experimental findings from patent publication US5192786A, “Substituted biphenylalkoxyamines” (Ortho Pharmaceutical Corporation, priority 1990, dated 1993) are described below.

As usually defined, the IC50 is the concentration needed to halve the response being measured.

The subject of test [1] is histamine stimulated parietal cell. In words: Isolated parietal cell assay, inhibition of 14C-aminopyrine accumulation, histamine stimulated. It is filed as cell-based, rabbit. Particulars: Oryctolagus cuniculus, 20 min, read-out: Isolated Parietal Cells IC50 vs his. The method, then: (§1) The isolated parietal cell assay was conducted using the procedures of Batzri, S. et al., Biochemica et Biophysica Acta 508, 328 (1978) and Soll, A.H. Am. J. Physiol. 238, G366 (1980). Basically, parietal cells were isolated from the fundic mucosa of rabbit stomachs by a four-stage collagenase digestion process. The supernatant fractions from the last two stages of this process contain the individual parietal cells. This cell suspension was centrifuged and reconstituted in a modified Hank's buffer to contain 1-2×10^6 cells/ml. […] This accumulation was stimulated by histamine and was blocked by H2 antagonists. The cells were incubated with 0.4-0.5×10^6 cpm ^14 C-AP, with various concentrations of histamine as a stimulant, 1×10^-5 M isobutylmethylxanthine, and the test compound added in a 20 μl volume of buffer or DMSO. The flasks were incubated in a shaking water bath at 37° C. for 20 minutes. Two aliquots were then taken from each flask and cell pellets were collected by centrifugation. The pellets were solubilized with Protosol (New England Nuclear) and radioactivity determined by liquid scintillation spectrometry. Data are presented as the IC50 vs hist, the concentration of compound required to inhibit ^14 C-AP accumulation in the histamine stimulated parietal cell by 50%.

Test [2] can be described thus: In vivo anticonvulsant activity, Antielectroshock. Further details: species or system Male CD1 mice; key: +: Active; ±: Active, but weak; -: Inactive at this dose. To be noted: p.o.; for Anticonvulsant profile, Antielectroshock (100): 100 mg/kg; for Anticonvulsant profile, Antielectroshock (10): 10 mg/kg.
Test [3] deals with Trichophyton mentagrophytes. In words: In vitro antimicrobial activity, minimal inhibitory concentration (agar dilution), Trichophyton mentagrophytes. It is filed as cell-based, Trichophyton mentagrophytes ATC 22839. Particulars: Mueller Hinton agar, 32° C., 48 hours, complete inhibition of growth. As for the experimental part:
(§2) A 0.5 mg/ml stock solution of each Example compound was prepared in an appropriate solvent. From this stock, dilutions were prepared in solvent, and 0.2 ml aliquots of the stock and dilutions were added to tubes containing 19.8 ml of Mueller Hinton agar (46°-50° C.). The mixtures were poured into 100 by 15 mm petri dishes and allowed to solidify.
(§3) The test organisms (Candida albicans ATC 10231 and Trichophyton mentagrophytes ATC 22839) were diluted from frozen stock cultures. Inocula were diluted with sterile solution containing 0.1% peptone in water to contain approximately 2×10^5 […] (CFUs) per ml. Plate counts were performed on 1 mL of all inocula.
(§4) Each plate and unadulterated agar growth control was inoculated with the inocula prepared above using a Steer's Replicator method. Plates were then incubated at 32° C. Observations for growth were made at 48 hours.
(§5) The results of this test are reported below in Table 1 as compared to the known antifungal agents, miconazole nitrate and terconazole.

Test [4] deals with cAMP stimulated parietal cell. In words: Isolated parietal cell assay, inhibition of 14C-aminopyrine accumulation, dibutyryl cAMP stimulated. It is filed as cell-based, rabbit. To be noted: Oryctolagus cuniculus, 20 min, read-out: Isolated Parietal Cells IC50 vs cAMP. As for the experimental part:
as §1
When dibutyryl cAMP was used to stimulate the cells instead of histamine, a similar inhibition of ^14 C-AP accumulation was measured and the data are presented as the IC50 vs cAMP, the concentration of compound required to inhibit ^14 C-AP accumulation in the cAMP stimulated parietal cell by 50%.

Another test has as its system Candida albicans. In words: In vitro antimicrobial activity, minimal inhibitory concentration (agar dilution), Candida albicans. The class given is cell-based, Candida albicans ATC 10231. Particulars: read-out: Minimal inhibitory concentration, Candida albicans. The method, then: as §2, §3, §4, §5
The nature of test [5]: In vivo antisecretory activity, gastric secretion in pylorus ligated rats (acid output). Further details: species or system male Charles River Sprague Dawley derived rats. To be noted: Rattus norvegicus, 4 h; 20 mpk, po; four hours after ligation; read-out: Pylorous Ligated Rats, effect on acid output compared to control.
A short description of test [6]: In vivo anticonvulsant activity, Antimetrazol (pentylenetetrazol-induced convulsions). Further details: species or system Male CD1 mice; key: +: Active; ±: Active, but weak; -: Inactive at this dose. Particulars: p.o., 125 mg/kg pentylenetetrazol s.c. challenge; for Anticonvulsant profile, Antimetrazol (100): 100 mg/kg; for Anticonvulsant profile, Antimetrazol (10): 10 mg/kg. The method, then:
Male CD1 mice, fasted at least 16 hours, were divided into groups of 10 and test compounds or vehicle were administered orally by gavage. The vehicle used was 0.5% aqueous methylcellulose solution containing 0.4% (v/v) of Tween 80. One hour later (or at time of suspected peak activity), the mice were challenged with 125 mg/kg of pentylenetetrazol, administered subcutaneously. Pentylenetetrazol was dissolved in 0.9% sodium chloride solution, and the dosage volume for administration of test compounds or the convulsant challenge was 10 ml/kg. Animals were housed individually for observation of convulsions for a period of 30 minutes.
Pentylenetetrazol-induced convulsions in vehicle-treated mice consist of mixed-clonic/tonic seizures. Tonic hindlimb extension and death are terminal consequences. Test compounds that block the hindlimb tonic extensor component of the convulsions in at least 50% of treated mice were considered active. ED50 values of active compounds may be calculated by the method of probits (Finney, 1971).

Another test can be described thus: General CNS Behavior. The class given is in vivo, Male CD1 mice. Particulars: 100 mg/kg, p.o.
The mark [7] stands for this setting: histamine stimulated, 14C-aminopyrine accumulation, 37° C., 20 minutes.
[8] abbreviates: dibutyryl cAMP stimulated, 14C-aminopyrine accumulation, 37° C., 20 minutes.
Where [9] appears, read: Mueller Hinton agar, 32° C., 48 hours, complete inhibition of growth.

The structures appear in SMILES notation. Values after ≈ are worked out from the molar mass of the structure shown. Counter-ions that a name gives are not always drawn. Like-named read-outs stand apart in the source and are kept apart here. Bounds are passed on as bounds.

Regarding `C(=C\c1ccc(OCCCCn2ccnc2)cc1)/c1ccccc1` [Example 1, hydrochloride], the IC50 in test [1] (setting [7]) and in test [4] (setting [8]) was 450 nM in each case. Further, the “Anticonvulsant profile, Antielectroshock (100)” value in test [2] is recorded as “-”. Moreover, the MIC is 50 µg/mL in test [3] and more than 50 µg/mL in the test on Candida albicans (setting [9]). The change in vivo at 20 mg/kg in test [5] was -32%. Also, in test [6], the “Anticonvulsant profile, Antimetrazol (100)” value is recorded as “-”.
Take `C(=C\c1ccc(OCCCn2ccnc2)cc1)/c1ccccc1.Cl` [Example 2, (E)-4-(1H-Imidazol-1-yl)propoxystilbene hydrochloride]: the IC50 in test [1] (setting [7]) stood at 160 nM; in test [4] (setting [8]), 270 nM. Also, the “Anticonvulsant profile, Antielectroshock (10)” value in test [2] is listed as “-”. In test [2], the “Anticonvulsant profile, Antielectroshock (100)” value is “+”. Besides, the MIC is 10 µg/mL in test [3] and more than 50 µg/mL in the test on Candida albicans (setting [9]). Moreover, the change in vivo at 20 mg/kg in test [5] is -4%. For the same compound, the “Anticonvulsant profile, Antimetrazol (10)” value in test [6] is “-”. Also, the “Anticonvulsant profile, Antimetrazol (100)” value in test [6] is “+”.
For the compound `Clc1ccc(COC(Cn2ccnc2)c2ccc(Cl)cc2Cl)c(Cl)c1` (stereo not drawn) [Miconazole Nitrate, miconazole nitrate, reference compound], the figures for the MIC (in test [3]; with Candida albicans (48 h)) were 5 µg/mL and 1 µg/mL, respectively.
Turning to `CCCN(CCC)CCCCOc1ccc(-c2ccccc2)cc1.Cl` [Example 7, 1-(Dipropylaminobutoxy)-4-phenylbenzene hydrochloride], in test [1] (setting [7]), the IC50 came to 120 nM. In test [2], the “Anticonvulsant profile, Antielectroshock (10)” value is recorded as “-” and the “Anticonvulsant profile, Antielectroshock (100)” value is “±”. Further, the MIC in test [3] is 1 µg/mL. For the same compound, in test [4] (setting [8]), the IC50 was found to be 260 nM. In addition, the MIC in the test on Candida albicans (setting [9]) worked out at 50 µg/mL. The change in vivo at 20 mg/kg in test [5] is -45%. Further, in test [6], the “Anticonvulsant profile, Antimetrazol (10)” value was “-” and the “Anticonvulsant profile, Antimetrazol (100)” value is listed as “±”.
Regarding `CC(C)N1CCN(c2ccc(OCC3COC(Cn4cncn4)(c4ccc(Cl)cc4Cl)O3)cc2)CC1` (stereo not drawn) [Terconazole, terconazole, reference compound], the results for the MIC (in test [3]; in the test with Candida albicans (setting [9])) were 50 µg/mL (≈ 93.9 µM) and 0.1 µg/mL (≈ 0.188 µM), respectively.
`CNC(=C[N+](=O)[O-])NCCSCc1ccc(CN(C)C)o1` [Ranitidine, ranitidine, reference compound]: the IC50 was 40 nM in test [1] (setting [7]) and more than 100000 nM in test [4] (setting [8]).
Consider `CN/C(=N/CCSCc1nc[nH]c1C)NC#N` [Cimetidine, cimetidine, reference compound], for which the results for the IC50 in test [1] and in test [4] were 820 nM and more than 100000 nM, respectively.
`Clc1cccc(/C=C/c2ccc(OCCCCn3ccnc3)cc2)c1` [Example 5, hydrochloride]: the results for the IC50 in test [1] (setting [7]) and in test [4] (setting [8]) were 180 nM and 100 nM, respectively. The MIC (in test [3]; in the test with Candida albicans (setting [9])) was more than 50 µg/mL in each case. Also, the change in vivo at 20 mg/kg in test [5] is -12%.
Turning to `Cl.c1ccc(-c2ccc(OCCCCn3ccnc3)cc2)cc1` [Example 6, 1-(1H-Imidazol-1-ylbutoxy)-4-phenylbenzene hydrochloride], in test [1] (setting [7]), the IC50 is 170 nM. Further, in test [2], the “Anticonvulsant profile, Antielectroshock (10)” value was “-” and the “Anticonvulsant profile, Antielectroshock (100)” value was “±”. In addition, the MIC in test [3] is 1 µg/mL. Moreover, the “General CNS Behavior” value in “General CNS Behavior” is reported as “Wk CNS Depr”. Besides, the IC50 in test [4] (setting [8]) was 160 nM. The MIC in the test on Candida albicans (setting [9]) is 1 µg/mL. Further, the change in vivo at 20 mg/kg in test [5] was -24%. In addition, in test [6], the “Anticonvulsant profile, Antimetrazol (10)” value is recorded as “-” and the “Anticonvulsant profile, Antimetrazol (100)” value is given as “±”.
Take `CCCN(CCC)CCCOc1ccc(/C=C/c2cccc(OC)c2)cc1` [Example 3, (E)-3'-Methoxy-4-dipropylamino-propoxystilbene hydrochloride]: the IC50 in test [1] (setting [7]) was 100 nM; in test [4] (setting [8]), 110 nM. Besides, the “Anticonvulsant profile, Antielectroshock (100)” value in test [2] was “-”. The MIC (in test [3]; in the test with Candida albicans (setting [9])) was 50 µg/mL in each case. For the same compound, the change in vivo at 20 mg/kg in test [5] is -92%. Further, the “Anticonvulsant profile, Antimetrazol (10)” value in test [6] was “-”. In test [6], the “Anticonvulsant profile, Antimetrazol (100)” value is given as “+”.
With `Cl.O=C(c1ccc(Cl)cc1)c1ccc(OCCCn2ccnc2)cc1` [Example 11, 4'-Chloro-4-(1H-imidazol-1-ylpropoxy) benzophenone hydrochloride], the 50% inhibitory concentration (IC50) in test [1] (setting [7]) and in test [4] (setting [8]) was 280 nM each time. In addition, in test [2], the “Anticonvulsant profile, Antielectroshock (100)” value is recorded as “-”. Besides, the MIC in test [3] was 1 µg/mL; in the test with Candida albicans (setting [9]), more than 50 µg/mL. Further, in test [5], the change in vivo at 20 mg/kg was -35%. The “Anticonvulsant profile, Antimetrazol (100)” value in test [6] is given as “-”.
Consider `Cl.c1ccc(-c2ccc(OCCCn3ccnc3)cc2)cc1` [Example 8, 1-(1H-Imidazol-1-ylpropoxy)-4-phenylbenzene hydrochloride], for which, in test [1] (setting [7]), the IC50 was determined as 230 nM. For the same compound, in test [2], the “Anticonvulsant profile, Antielectroshock (10)” value is “-” and the “Anticonvulsant profile, Antielectroshock (100)” value is reported as “±”. Moreover, in test [3], the MIC came to 1 µg/mL. In addition, in “General CNS Behavior”, the “General CNS Behavior” value is reported as “Wk CNS Depr”. Moreover, the IC50 in test [4] (setting [8]) amounted to 320 nM. Also, in the test with Candida albicans (setting [9]), the MIC was 1 µg/mL. Moreover, the change in vivo at 20 mg/kg in test [5] is -33%. Also, in test [6], the “Anticonvulsant profile, Antimetrazol (10)” value is “-” and the “Anticonvulsant profile, Antimetrazol (100)” value is reported as “±”.
`c1ccc(-c2ccc(OCCCCCn3cncn3)cc2)cc1` [Example 10, hydrochloride]: the IC50 in test [1] (setting [7]) and in test [4] (setting [8]) was less than 10000 nM in each case. The MIC in test [3] was 10 µg/mL; in the test on Candida albicans (setting [9]), more than 50 µg/mL.
`Cl.c1ccc(-c2ccc(OCCCCCn3ccnc3)cc2)cc1` [Example 9, 1-(1H-Imidazol-1-ylpentoxy)-4-phenylbenzene hydrochloride]: the IC50 stood at 90 nM in test [1] (setting [7]) and 110 nM in test [4] (setting [8]). The “Anticonvulsant profile, Antielectroshock (10)” value in test [2] was “-”. The MIC in test [3] came to 10 µg/mL; in the test on Candida albicans (setting [9]), 50 µg/mL. Moreover, the change in vivo at 20 mg/kg in test [5] was -54%.
Consider `c1ccc(Cc2ccc(OCCCn3ccnc3)cc2)cc1` [Example 12, 1-[4-(1H-Imidazol-1-ylpropoxyphenyl)-1-phenylmethane hydrochloride], for which the IC50 in test [1] (setting [7]) stood at 140 nM. Moreover, in test [2], the “Anticonvulsant profile, Antielectroshock (10)” value was “-” and the “Anticonvulsant profile, Antielectroshock (100)” value was “+”. The compound also showed an MIC in test [3] of 10 µg/mL. Also, the “General CNS Behavior” value in “General CNS Behavior” is reported as “Mod CNS Depr”. For the same compound, the IC50 in test [4] (setting [8]) is 300 nM. In the test on Candida albicans (setting [9]), the MIC was 50 µg/mL. In addition, the change in vivo at 20 mg/kg in test [5] is -51%. Also, in test [6], the “Anticonvulsant profile, Antimetrazol (10)” value is “-” and the “Anticonvulsant profile, Antimetrazol (100)” value is listed as “+”.
